This note sets out measurements from ChEMBL document CHEMBL3886577, “N-((6-amino-pyridin-3-yl)methyl)-heteroaryl-carboxamides” (2016).

What is called IC50 is the concentration that gives 50% inhibition.

Test [1] can be described thus: (§1) In-vitro Plasma Kallikrein Inhibition: Enzymatic reactions were conducted in ⿿assay buffer⿿, comprising 50 mM Hepes/NaOH at pH 7.8, 150 mM NaCl, 1 mM EDTA and 0.05% (w/v) CHAPS. For the determination of IC50 values, the assays were performed at room temperature in 384-well plates with a total assay volume of 25.25 ul per well. The test compound was dissolved in 90% (v/v) DMSO/water. For the assays, 250 nL of the 90% (v/v) DMSO/water solution or compound solution were added per well, followed by the addition of 12.5 ul protease solution (protease in assay buffer). The final assay concentration of the human plasma kallikrein was nominally 25 pM, the 11 compound concentrations in the dilution series were in the range form 1 nM to 100 uM. After 1 hour of pre-incubation at room temperature, the reactions were started by the addition of 12.5 ul substrate solution (in assay buffer, final assay concentration was 0.5 uM). After the addition of the substrate solution, the final DMSO concentration in the assay was 0.9% (v/v).

Another test deals with Plasma kallikrein (Homo sapiens, UniProt P03952). The description is as §1. The test is classed as cell-free.
Plasma kallikrein, sequence (P03952 20-390 limits assumed): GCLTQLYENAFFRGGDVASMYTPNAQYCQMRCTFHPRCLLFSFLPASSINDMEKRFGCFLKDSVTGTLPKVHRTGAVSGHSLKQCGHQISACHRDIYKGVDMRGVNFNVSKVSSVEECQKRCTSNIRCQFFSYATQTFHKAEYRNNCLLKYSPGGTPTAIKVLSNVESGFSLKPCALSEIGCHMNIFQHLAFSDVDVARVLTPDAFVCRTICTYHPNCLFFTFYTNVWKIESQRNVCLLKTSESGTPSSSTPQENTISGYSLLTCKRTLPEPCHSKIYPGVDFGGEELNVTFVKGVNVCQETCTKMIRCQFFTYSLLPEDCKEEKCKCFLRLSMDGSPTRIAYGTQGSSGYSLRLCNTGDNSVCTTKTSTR
Plasma kallikrein, sequence (P03952 391-638 limits assumed): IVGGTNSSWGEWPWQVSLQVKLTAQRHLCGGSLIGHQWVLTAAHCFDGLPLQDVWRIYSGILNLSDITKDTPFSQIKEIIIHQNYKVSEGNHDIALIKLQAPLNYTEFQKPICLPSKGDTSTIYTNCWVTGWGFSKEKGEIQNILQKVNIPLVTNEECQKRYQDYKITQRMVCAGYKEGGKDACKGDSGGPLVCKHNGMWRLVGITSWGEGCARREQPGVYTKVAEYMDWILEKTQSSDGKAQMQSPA

`Cc1nc(N)cc(OCC(=O)C(C)(C)C)c1CNC(=O)c1cn(Cc2ccccc2)nn1` gave an IC50 in test [1] of 24 nM.

`Cc1cc(N)nc(C)c1CNC(=O)c1nnn(Cc2ccccc2)c1C` yielded an IC50 at Plasma kallikrein of 52100 nM.

`COc1cc(Cn2cc(C(=O)NCc3c(C)cc(N)nc3C)cn2)ccc1Cn1cccn1` came in with an IC50 against Plasma kallikrein of 0.0912 nM.

At Plasma kallikrein, `COc1ccc2cc(Cn3cc(C(=O)NCc4c(C)cc(N)nc4C)cn3)ccc2c1` came in with an IC50 of 5 nM.

At Plasma kallikrein, `Cc1cc(N)nc(C)c1CNC(=O)c1cn(Cc2ccc(-c3ccccc3)cc2)nn1` had a 50% inhibitory concentration (IC50) of 30 nM.

Consider `Cc1cc(N)nc(C)c1CNC(=O)c1nc(Cc2ccccc2)n(C)n1`, for which half-maximal inhibition against Plasma kallikrein (IC50) required 7670 nM.

For the compound `Cc1cc(N)nc(C)c1CNC(=O)c1cc(C)n(Cc2ccco2)c1C`, the half-maximal inhibitory concentration (IC50) on Plasma kallikrein came out at 739 nM.

In the case of `Cc1cc(N)nc(C)c1CNC(=O)c1cnn(Cc2ccc(CO)cc2)c1`, on Plasma kallikrein, the IC50 is 150 nM.

Regarding `CNC(=O)COc1cc(N)nc(C)c1CNC(=O)c1cnn(Cc2ccccc2)c1`, the concentration for half-maximal inhibition (IC50) against Plasma kallikrein turned out to be 70 nM.
